# Experiment: Stability of the crystal forms based on DSC endothermic test
# Format: physicochemical
# Conditions: analysis based on measurement results of a DSC endothermic test; rank order among polymorphs of compound (I)
# Excerpt: FIGS. 1, 4 and 7 show the IR (KBr) spectrum, DSC endothermic curve and X-ray diffraction pattern of the crystals, respectively.
# FIGS. 2, 5 and 8 show the IR (KBr) spectrum, DSC endothermic curve and X-ray diffraction pattern of the crystals, respectively.
# FIGS. 3, 6 and 9 show the […]
compound,measurement,value
"C#CCC/C(O)=C(\C#N)C(=O)Nc1ccc(C(F)(F)F)cc1 [B-form crystals, 2-cyano-3-hydroxy-N-(4-trifluoromethylphenyl) hept-2-en-6-ynamide]",stability order of the crystal forms,B-form crystals>C-form crystals>A-form crystals

# — patent US20060217440A1, “Porcess for production of 2-cyano-3-hydroxy-n-(4-trifluoromethylphenyl)hept-2-en-6-ynamide and process for production of polymorphs thereof” (priority 2003, published 2006)
